Assay results reported in ChEMBL document CHEMBL1146266, “Kojic acid and its manganese and zinc complexes as potential radioprotective agents” (Bioorg Med Chem Lett, 2007).
The source made the active and inactive calls. The calls are words filed in the database; no cut-off is given here.

Legend:
Mus musculus [1] = assay: Increase in survival of subcutaneously dosed NMRI mouse irradiated with cobalt 60 gamma relative to control; format: functional, organism-based
Mus musculus [2] = assay: Survival of NMRI mouse for 30 days at 214 mg/kg, sc administered 24 hrs before cobalt 60 gamma irradiation; format: functional; conditions: light or radiation study, route subcutaneous
Mus musculus [3] = assay: Survival of NMRI mouse subcutaneously dosed 30 mins before cobalt 60 gamma irradiation; format: functional
Mus musculus [4] = assay: Survival of NMRI mouse for 30 days at 142 mg/kg, sc administered 24 hrs before cobalt 60 gamma irradiation; format: functional; conditions: light or radiation study, route subcutaneous
[5] = Toxicity in subcutaneously injected NMRI mouse; format: organism-based; conditions: in vivo, sc
Mus musculus [6] = assay: Survival of NMRI mouse for 30 days at 71 mg/kg, sc administered 24 hrs before cobalt 60 gamma irradiation; format: functional; conditions: light or radiation study, route subcutaneous

SMILES | Activity (Mus musculus [1]) | survival at 214 mg/kg (Mus musculus [2]) [%] | Survival (Mus musculus [3]) [%] | survival at 142 mg/kg (Mus musculus [4]) [%] | LD50 [5] [mg/kg] | survival at 71 mg/kg (Mus musculus [6]) [%]
NCCCNCCSP(=O)(O)O [AMIFOSTINE] | Active | 81 | 90 | – | – | –
O=c1cc(CO)occ1O [KOJIC ACID] | Active | – | – | 63 | 1400 | 28
